Where “and” joins values, the source holds several entries; their conditions need not be identical. Identical values can stand only once. Like-named read-outs stand apart in the source and are kept apart here. Starred links: 1 amine or outer side, 2 acyl side, 3 side chain; linkers in the order of their positions; H or OH if unused. Non-standard residues stand in square brackets, D forms with d. Residues, ends and D or L forms follow the SMILES beside them. X1 = CCCCC[C@H](O[*:1])C(=O)[*:2]; Ahp(2) = CCCCC[C@H](N)C(=O)O; dNMeA = CN[C@H](C)C(=O)O
How the values were obtained:
[1] = system: PAMPA
[2] = system: PAMPA; remark: listed apart in the source
[3] = system: PAMPA; remark: listed apart in the source
[4] = system: PAMPA; details: UV detection
[5] = system: PAMPA; details: calculated using Supplement Equation 1, UV detection
[6] = system: PAMPA; remark: listed apart in the source
[7] = PAMPA, permeability assay across an artificial membrane; details: for Acceptor Concentration, Ave: after incubation; for Δ % diffusion: increase: difference between percent diffusion of macrocycle vs linear counterpart
[8] = PAMPA, ratio-based method, series 2 macrocycles, previously reported; ref Thorpe et al., Chem. Sci. 2024, 15, 14977; cited from earlier work

Q: For `CCCCC[C@@H]1OC(=O)[C@@H](C)N(C)C(=O)[C@H](CCCCC)OC(=O)[C@@H](C)N(C)C(=O)[C@H](CCCCC)OC(=O)[C@@H](C)N(C)C(=O)[C@H](CCCCC)OC(=O)[C@@H](C)N(C)C(=O)[C@H](CCCCC)OC(=O)[C@@H](C)N(C)C(=O)[C@H](CCCCC)OC(=O)[C@@H](C)N(C)C1=O` [Compound C1.6], which Acceptor Concentration ([1]; Acceptor Concentration (uM) – ELSD Detection / [row 1]) is on record?
A: The Acceptor Concentration was 27.2 µM.

Q: And the Acceptor Concentration ([1]; Acceptor Concentration (uM) – ELSD Detection / [row 2])?
A: The Acceptor Concentration was 30 µM.

Q: And the Acceptor Concentration ([1]; Acceptor Concentration (uM) – ELSD Detection / [row 3])?
A: Its Acceptor Concentration is 25.6 µM.

Q: What about the Acceptor Concentration ([1]; Acceptor Concentration (uM) – ELSD Detection / [row 4]) of the same compound?
A: The Acceptor Concentration was 29.3 µM.

Q: What about the Acceptor Concentration ([1]; Acceptor Concentration (uM) – ELSD Detection / [row 5]) of the same compound?
A: The Acceptor Concentration was 27.1 µM.

Q: And the Acceptor Concentration ([1]; Acceptor Concentration (uM) – ELSD Detection / [row 6])?
A: Its Acceptor Concentration is 45.6 µM.

Q: And the Acceptor Concentration ([1]; Acceptor Concentration (uM) – ELSD Detection / [row 7])?
A: Its Acceptor Concentration is 39.3 µM.

Q: What about the Acceptor Concentration ([1]; Acceptor Concentration (uM) – ELSD Detection / [row 8]) of the same compound?
A: The Acceptor Concentration was 42.2 µM.

Q: And the Acceptor Concentration ([1]; Acceptor Concentration (uM) – ELSD Detection / [row 9])?
A: Its Acceptor Concentration is 25.8 µM.

Q: What about the Acceptor Concentration ([1]; Acceptor Concentration (uM) – ELSD Detection / [row 10]) of the same compound?
A: The Acceptor Concentration was 46.7 µM.

Q: What about the Acceptor Concentration ([1]; Acceptor Concentration (uM) – UV Detection / [row 1]) of the same compound?
A: The Acceptor Concentration was 38.6 µM.

Q: And the Acceptor Concentration ([1]; Acceptor Concentration (uM) – UV Detection / [row 2])?
A: Its Acceptor Concentration is 37.6 µM.

Q: And the Acceptor Concentration ([1]; Acceptor Concentration (uM) – UV Detection / [row 3])?
A: Its Acceptor Concentration is 33.9 µM.

Q: And the Acceptor Concentration ([1]; Acceptor Concentration (uM) – UV Detection / [row 4])?
A: The Acceptor Concentration was 31.6 µM.

Q: And the Acceptor Concentration ([1]; Acceptor Concentration (uM) – UV Detection / [row 5])?
A: The Acceptor Concentration was 37 µM.

Q: And the Acceptor Concentration ([1]; Acceptor Concentration (uM) – UV Detection / [row 6])?
A: Its Acceptor Concentration is 51.1 µM.

Q: And the Acceptor Concentration ([1]; Acceptor Concentration (uM) – UV Detection / [row 7])?
A: Its Acceptor Concentration is 41.4 µM.

Q: What about the Acceptor Concentration ([1]; Acceptor Concentration (uM) – UV Detection / [row 8]) of the same compound?
A: Its Acceptor Concentration is 41.9 µM.

Q: And the Acceptor Concentration ([1]; Acceptor Concentration (uM) – UV Detection / [row 9])?
A: Its Acceptor Concentration is 49 µM.

Q: What about the Acceptor Concentration ([1]; Acceptor Concentration (uM) – UV Detection / [row 10]) of the same compound?
A: Its Acceptor Concentration is 37.4 µM.

Q: What about the acceptor concentration after incubation ([2]; Well 1 / [acc]) of the same compound?
A: Its acceptor concentration after incubation is 38.6 µM and 51.1 µM.

Q: And the acceptor concentration after incubation ([2]; Well 2 / [acc])?
A: Its acceptor concentration after incubation is 37.6 µM and 41.4 µM.

Q: What about the acceptor concentration after incubation ([2]; Well 3 / [acc]) of the same compound?
A: The acceptor concentration after incubation was 41.9 µM.

Q: And the acceptor concentration after incubation ([2]; Well 4 / [acc])?
A: The acceptor concentration after incubation was 31.6 µM and 49.1 µM.

Q: And the acceptor concentration after incubation ([2]; Well 5 / [acc])?
A: Its acceptor concentration after incubation is 37.4 µM.

Q: And the Papp ([3]; Papp (x 10^-6 cm/s) – ELSD Detection / [row 2], ELSD Detection)?
A: Its Papp is 1.94 ×10⁻⁶ cm/s.

Q: And the Papp ([3]; Papp (x 10^-6 cm/s) – ELSD Detection / [row 3], ELSD Detection)?
A: The Papp was 1.99 ×10⁻⁶ cm/s.

Q: What about the Papp ([3]; Papp (x 10^-6 cm/s) – ELSD Detection / [row 4], ELSD Detection) of the same compound?
A: Its Papp is 1.87 ×10⁻⁶ cm/s.

Q: And the Papp ([3]; Papp (x 10^-6 cm/s) – ELSD Detection / [row 5], ELSD Detection)?
A: Its Papp is 1.89 ×10⁻⁶ cm/s.

Q: What about the Papp ([3]; Papp (x 10^-6 cm/s) – ELSD Detection / [row 6], ELSD Detection) of the same compound?
A: The Papp was 1.93 ×10⁻⁶ cm/s.

Q: And the Papp ([3]; Papp (x 10^-6 cm/s) – ELSD Detection / [row 7], ELSD Detection)?
A: The Papp was 1.88 ×10⁻⁶ cm/s.

Q: And the Papp ([3]; Papp (x 10^-6 cm/s) – ELSD Detection / [row 8], ELSD Detection)?
A: The Papp was 1.91 ×10⁻⁶ cm/s.

Q: What about the Papp ([3]; Papp (x 10^-6 cm/s) – ELSD Detection / [row 9], ELSD Detection) of the same compound?
A: Its Papp is 1.8 ×10⁻⁶ cm/s.

Q: What about the Papp ([3]; Papp (x 10^-6 cm/s) – ELSD Detection / [row 10], ELSD Detection) of the same compound?
A: Its Papp is 1.92 ×10⁻⁶ cm/s.

Q: And the Papp ([3]; Papp (x 10^-6 cm/s) – UV Detection / [row 1], UV Detection)?
A: The Papp was 1.95 ×10⁻⁶ cm/s.

Q: What about the Papp ([3]; Papp (x 10^-6 cm/s) – UV Detection / [row 2], UV Detection) of the same compound?
A: The Papp was 1.93 ×10⁻⁶ cm/s.

Q: What about the Papp ([3]; Papp (x 10^-6 cm/s) – UV Detection / [row 3], UV Detection) of the same compound?
A: Its Papp is 1.95 ×10⁻⁶ cm/s.

Q: What about the Papp ([3]; Papp (x 10^-6 cm/s) – UV Detection / [row 4], UV Detection) of the same compound?
A: Its Papp is 1.81 ×10⁻⁶ cm/s.

Q: What about the Papp ([3]; Papp (x 10^-6 cm/s) – UV Detection / [row 6], UV Detection) of the same compound?
A: The Papp was 2.59 ×10⁻⁶ cm/s.

Q: And the Papp ([3]; Papp (x 10^-6 cm/s) – UV Detection / [row 7], UV Detection)?
A: The Papp was 1.89 ×10⁻⁶ cm/s.

Q: And the Papp ([3]; Papp (x 10^-6 cm/s) – UV Detection / [row 8], UV Detection)?
A: The Papp was 1.91 ×10⁻⁶ cm/s.

Q: What about the Papp ([3]; Papp (x 10^-6 cm/s) – UV Detection / [row 9], UV Detection) of the same compound?
A: Its Papp is 2.19 ×10⁻⁶ cm/s.

Q: And the Papp ([3]; Papp (x 10^-6 cm/s) – UV Detection / [row 10], UV Detection)?
A: Its Papp is 1.87 ×10⁻⁶ cm/s.

Q: What about the % recovery ([4]; Well 1 / %R, Well 1) of the same compound?
A: Its % recovery is 89% and 86%.

Q: What about the % recovery ([4]; Well 2 / %R, Well 2) of the same compound?
A: Its % recovery is 88% and 97%.

Q: And the % recovery ([4]; Well 3 / %R, Well 3)?
A: Its % recovery is 80% and 98%.

Q: And the % recovery ([4]; Well 4 / %R, Well 4)?
A: Its % recovery is 82% and 97%.

Q: What about the % recovery ([4]; Well 5 / %R, Well 5) of the same compound?
A: Its % recovery is 89% and 91%.

Q: What about the %T ([5]; Well 1 / %T, Well 1) of the same compound?
A: Its %T is 0.63% and 0.58%.

Q: What about the %T ([5]; Well 2 / %T, Well 2) of the same compound?
A: The %T was 0.65% and 0.63%.

Q: What about the %T ([5]; Well 3 / %T, Well 3) of the same compound?
A: Its %T is 0.63% and 0.59%.

Q: What about the %T ([5]; Well 4 / %T, Well 4) of the same compound?
A: The %T was 0.66% and 0.6%.

Q: And the %T ([5]; Well 5 / %T, Well 5)?
A: The %T was 0.62% and 0.63%.

Q: What about the donor concentration after incubation ([6]; Well 1 / [donor]) of the same compound?
A: Its donor concentration after incubation is 407 µM and 377 µM.

Q: What about the donor concentration after incubation ([6]; Well 2 / [donor]) of the same compound?
A: Its donor concentration after incubation is 404 µM and 445 µM.

Q: What about the donor concentration after incubation ([6]; Well 3 / [donor]) of the same compound?
A: The donor concentration after incubation was 368 µM and 446 µM.

Q: And the donor concentration after incubation ([6]; Well 4 / [donor])?
A: Its donor concentration after incubation is 379 µM and 438 µM.

Q: What about the donor concentration after incubation ([6]; Well 5 / [donor]) of the same compound?
A: Its donor concentration after incubation is 406 µM and 417 µM.

Q: And the “Diffusion (%)” value ([7]; PAMPA percent diffusion, C0 500 uM)?
A: The value was 6.78% and 7% and 6.8 ± 1.7%.

Q: And the “Recovery (%)” value ([7]; PAMPA, (acceptor + donor)/total analyte, C0 500 uM)?
A: Its value is 90%.

Q: And the Papp at 500 uM ([7]; PAMPA, Ave, ELSD detection, C0 500 uM)?
A: The Papp at 500 uM was 1.9 ×10⁻⁶ cm/s.

Q: What about the Papp at 500 uM ([7]; PAMPA, ratio-based method, mean ± SD, C0 500 uM, UV detection) of the same compound?
A: Its Papp at 500 uM is 2 ± 0.23 ×10⁻⁶ cm/s.

Q: And the recovery at 500 uM ([7]; PAMPA, Recovery (%), PAMPA, (acceptor + donor)/total analyte, C0 500 uM)?
A: Its recovery at 500 uM is 89.7%.

Q: And the “Acceptor Concentration, Ave” value ([7]; PAMPA, ELSD detection, C0 500 uM)?
A: Its value is 33.9 µM.

Q: What about the “Acceptor Concentration, Ave” value ([7]; PAMPA, UV detection, C0 500 uM) of the same compound?
A: The value was 39.95 µM.

Q: What about the Δ % diffusion [7] of the same compound?
A: The Δ % diffusion was “↑2%”.

Q: Which LogPapp [8] does the source give for `CCCCC[C@@H]1NC(=O)[C@@H](C)N(C)C(=O)[C@H](CCCCC)OC(=O)[C@@H](C)N(C)C(=O)[C@H](CCCCC)OC(=O)[C@@H](C)N(C)C(=O)[C@H](CCCCC)OC(=O)[C@@H](C)N(C)C1=O` [Compound C2.1] (cyclo([Ahp(2)][dNMeA][X1][dNMeA][X1][dNMeA][X1][dNMeA])) here?
A: The LogPapp was -4.91 ± 0.09.

Q: And the Δ % diffusion [7]?
A: The Δ % diffusion was “↑19%”.

— article PMC11995216, “End-to-End Backbone Cyclization Enhances Passive Permeability of bRo5 Oligomeric Depsipeptides with Nonlinear Size Dependence” (ACS Medicinal Chemistry Letters, 2025)
